Six molecules from the NIST ThermoML archive (doi:10.1016/j.fluid.2004.12.004) can be followed below.

± gives the expanded uncertainty stated by the source.

For the data set the following is noted: 298.15 K; 101.33 kPa; Liquid; Vibrating tube method.
As to `CN(C)C=O` [dimethylformamide], the mass density was found to be 943.81 ± 0.2 kg/m3.

Turning to `CC1CCCCC1` [methylcyclohexane], the mass density came out at 764.96 ± 0.13 kg/m3.

With `CCCCO` [butan-1-ol], the mass density came to 805.8 ± 0.2 kg/m3.

For the molecule `COC(=O)c1ccccc1C(=O)OC` [dimethyl 1,2-benzenedicarboxylate], the mass density turned out to be 1186.9 ± 0.2 kg/m3.

Consider `CC(=O)Oc1ccccc1` [phenyl ethanoate], for which the mass density stood at 1073.3 ± 0.42 kg/m3.

Consider `CCOC(C)=O` [ethyl acetate], for which the mass density worked out at 894.4 ± 0.6 kg/m3.
